Several values for one entry are separate records, joined by “and”; a condition that tells them apart may be missing. Equal values may be shown once.

Results on eight compounds are retold here after ChEMBL document CHEMBL1145144, “Structure-based design of cycloamide-urethane-derived novel inhibitors of human brain memapsin 2 (beta-secretase)” (Bioorg Med Chem Lett, 2005).

In the first test the target is Beta-secretase 1 (Homo sapiens, UniProt P56817). Put plainly: Binding affinity for human brain memapsin 2.
Beta-secretase 1, sequence (P56817 whole entry): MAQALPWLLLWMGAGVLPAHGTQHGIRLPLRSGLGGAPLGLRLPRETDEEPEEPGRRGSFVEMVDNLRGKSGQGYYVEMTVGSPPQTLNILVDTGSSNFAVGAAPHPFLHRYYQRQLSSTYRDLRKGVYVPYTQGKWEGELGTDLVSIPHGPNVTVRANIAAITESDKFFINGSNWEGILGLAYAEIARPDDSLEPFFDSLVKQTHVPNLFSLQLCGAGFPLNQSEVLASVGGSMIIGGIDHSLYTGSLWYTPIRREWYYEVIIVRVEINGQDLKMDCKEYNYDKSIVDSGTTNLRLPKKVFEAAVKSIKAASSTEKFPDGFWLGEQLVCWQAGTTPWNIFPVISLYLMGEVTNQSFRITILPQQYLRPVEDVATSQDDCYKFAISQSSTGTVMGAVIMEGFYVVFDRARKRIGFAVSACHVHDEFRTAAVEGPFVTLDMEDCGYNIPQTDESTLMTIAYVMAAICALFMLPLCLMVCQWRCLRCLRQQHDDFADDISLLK
Regarding `C=CCCCOC(=O)N[C@H](C(=O)N[C@@H](CC(=O)NCC=C)C(=O)N[C@@H](CC(C)C)[C@@H](O)C[C@@H](C)C(=O)N[C@H](C(=O)NCc1ccccc1)C(C)C)C(C)C`, the inhibition constant Ki amounted to 112 nM.

In turn, `CC(C)C[C@H](NC(=O)[C@@H]1CC(=O)NCCCCOC(=O)N[C@@H](C(C)C)C(=O)N1)[C@@H](O)C[C@@H](C)C(=O)N[C@H](C(=O)NCc1ccccc1)C(C)C` had a Ki of 218 nM.

Turning to `CC(C)C[C@H](NC(=O)[C@@H]1CC(=O)NC/C=C/CCOC(=O)N[C@@H](C(C)C)C(=O)N1)[C@@H](O)C[C@@H](C)C(=O)N[C@H](C(=O)NCc1ccccc1)C(C)C`, affinity was put at a Ki of 28.4 nM.

`CC(C)C[C@H](NC(=O)[C@@H]1CC(=O)NC/C=C/CCCOC(=O)N[C@@H](C(C)C)C(=O)N1)[C@@H](O)C[C@@H](C)C(=O)N[C@H](C(=O)NCc1ccccc1)C(C)C`: the Ki is 14.2 nM and 31 nM.

Regarding `CC(C)C[C@H](NC(=O)[C@@H]1CC(=O)NCCCCCOC(=O)N[C@@H](C(C)C)C(=O)N1)[C@@H](O)C[C@@H](C)C(=O)N[C@H](C(=O)NCc1ccccc1)C(C)C`, affinity was put at a Ki of 108 nM.

The compound `C=CCCOC(=O)N[C@H](C(=O)N[C@@H](CC(=O)NCC=C)C(=O)N[C@@H](CC(C)C)[C@@H](O)C[C@@H](C)C(=O)N[C@H](C(=O)NCc1ccccc1)C(C)C)C(C)C` gave an inhibition constant (Ki) of 61.4 nM.

`CC(C)C[C@H](NC(=O)[C@@H]1CC(=O)NC/C=C/COC(=O)N[C@@H](C(C)C)C(=O)N1)[C@@H](O)C[C@@H](C)C(=O)N[C@H](C(=O)NCc1ccccc1)C(C)C` had a Ki of 87.2 nM.

The next test has as its target T1, Beta-secretase 2 (Homo sapiens, UniProt Q9Y5Z0).
T1 sequence (Q9Y5Z0 whole entry): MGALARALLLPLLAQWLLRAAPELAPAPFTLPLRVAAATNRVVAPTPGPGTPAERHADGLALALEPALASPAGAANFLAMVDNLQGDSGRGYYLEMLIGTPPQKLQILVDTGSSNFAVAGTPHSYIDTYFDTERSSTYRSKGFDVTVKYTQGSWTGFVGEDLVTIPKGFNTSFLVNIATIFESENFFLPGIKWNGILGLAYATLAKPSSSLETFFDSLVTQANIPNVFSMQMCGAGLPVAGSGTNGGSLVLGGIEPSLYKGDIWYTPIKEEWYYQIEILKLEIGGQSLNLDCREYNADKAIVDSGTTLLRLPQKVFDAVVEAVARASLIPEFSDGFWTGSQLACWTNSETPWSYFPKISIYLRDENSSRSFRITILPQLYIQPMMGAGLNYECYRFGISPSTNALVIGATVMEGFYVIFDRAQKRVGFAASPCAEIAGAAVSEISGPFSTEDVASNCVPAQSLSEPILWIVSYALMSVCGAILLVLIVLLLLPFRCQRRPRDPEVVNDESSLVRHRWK
The test can be described thus: Binding affinity for human brain memapsin 1.
`CC(C)C[C@H](NC(=O)[C@@H]1CC(=O)NCCCCCCOC(=O)N[C@@H](C(C)C)C(=O)N1)[C@@H](O)C[C@@H](C)C(=O)N[C@H](C(=O)NCc1ccccc1)C(C)C` showed an inhibitory constant (Ki) of 4.5 nM.
